Columns and labels:
weeds = experiment: Weed control by the pest control sheet in a watermelon crop; format: in vivo
Text: (§1) The present invention further provides a method for pest control. Said method may be applied in agriculture, horticulture or in garden maintenance. In agriculture and horticulture said method is applied as follows: subsequent to physically preparing the field and soil for planting, e.g. plowing, fumigating the soil and laying down of an irrigation system, the sheet is spread over the field so as to cover the soil [FIG. II, (1)], and is then secured to the ground. The sheet [FIG. II, (2), (3)] is then punctured at the spot where a seedling is intended to be planted so that a seedling [FIG. II, (4)] may be inserted through the hole [FIG. II, (5)] and planted in the soil. […] When the sheet contains a pesticide in the top layer, then pest control is maintained above the soil, in the area of the plant. This may also help in protecting the fruit/vegetable itself. Said method can be applied in gardens in a similar manner as described above. The sheet and method of the present invention have been applied to a watermelon crop. The experiments were conducted with three different concentrations of herbicide in the bottom layer.

watermelon crop = experiment: Watermelon crop development under the pest control sheet; format: in vivo
Text: as §1

[1] = 0.5 weight % of pesticide in bottom layer of sheet
[2] = 1 weight % of pesticide in bottom layer of sheet
[3] = 2 weight % of pesticide in bottom layer of sheet

CCOc1cc(Oc2ccc(C(F)(F)F)cc2Cl)ccc1[N+](=O)[O-] [Oxyfluorfen, 2-chloro-a,a,a-trifluoro-p-tolyl 3-ethoxy-4-nitrophenyl ether]
100%: Weed control (% of weed control on a scale of 0-100, 100 indicating total prevention of weed emergence) (weeds; [1]) | Weed control (% of weed control on a scale of 0-100, 100 indicating total prevention of weed emergence) (weeds; [2]) | Weed control (% of weed control on a scale of 0-100, 100 indicating total prevention of weed emergence) (weeds; [3]) | Development (% of crop development in comparison to healthy crop on a scale of 0-100, 100 indicating a healthy crop) (watermelon crop; [1]) | Development (% of crop development in comparison to healthy crop on a scale of 0-100, 100 indicating a healthy crop) (watermelon crop; [2]) | Development (% of crop development in comparison to healthy crop on a scale of 0-100, 100 indicating a healthy crop) (watermelon crop; [3])

Source: US20080312086A1, “PEST CONTROL SHEET” (MAKHTESHIM CHEMICAL WORKS LTD., priority 2000, published 2008)
